Laboratory results published in the NIST ThermoML archive (doi:10.1021/je100610v).
Numbers after ± are expanded uncertainties.

Assay: xn = mol fraction of the nth substance listed
Details: 101 kPa, Liquid; for speed of sound: Pulse-echo method

Q: Which results are given for ClCCCCCCCl [1,6-dichlorohexane] + CCCCCCC?
A: speed of sound (292.49 K, x1 = 0.3004): 1199.1 ± 1.1 m/s; speed of sound (292.56 K, x1 = 0.6998): 1276.9 ± 1.6 m/s; speed of sound (292.79 K, x1 = 0.4999): 1235 ± 1.3 m/s; speed of sound (292.8 K, x1 = 0.8001): 1297 ± 1.8 m/s; speed of sound (292.8 K, x1 = 0.8957): 1316.3 ± 2 m/s; speed of sound (292.81 K, x1 = 0.1999): 1181.6 ± 0.93 m/s; speed of sound (292.81 K, x1 = 0.6004): 1255 ± 1.5 m/s; speed of sound (292.91 K, x1 = 0.4): 1215.3 ± 1.2 m/s; speed of sound (292.92 K, x1 = 0.1014): 1167.6 ± 0.83 m/s; speed of sound (293.01 K, x1 = 1): 1337.8 ± 2.1 m/s; mass density (293.15 K, x1 = 0.0998): 722.22 ± 0.86 kg/m3; mass density (293.15 K, x1 = 0.1999): 760.97 ± 0.79 kg/m3; mass density (293.15 K, x1 = 0.2998): 799.74 ± 0.73 kg/m3; mass density (293.15 K, x1 = 0.4001): 838.66 ± 0.69 kg/m3; mass density (293.15 K, x1 = 0.5001): 877.38 ± 0.66 kg/m3; mass density (293.15 K, x1 = 0.6002): 916.12 ± 0.66 kg/m3; mass density (293.15 K, x1 = 0.7): 954.46 ± 0.69 kg/m3; mass density (293.15 K, x1 = 0.8002): 992.78 ± 0.74 kg/m3; mass density (293.15 K, x1 = 0.9001): 1030.7 ± 0.97 kg/m3; mass density (293.15 K, x1 = 1): 1068.33 ± 1.3 kg/m3; mass density (298.15 K, x1 = 0.0998): 717.96 ± 0.87 kg/m3; mass density (298.15 K, x1 = 0.1999): 756.72 ± 0.8 kg/m3; mass density (298.15 K, x1 = 0.2998): 795.42 ± 0.74 kg/m3; mass density (298.15 K, x1 = 0.4001): 834.33 ± 0.7 kg/m3; mass density (298.15 K, x1 = 0.5001): 873.04 ± 0.67 kg/m3; mass density (298.15 K, x1 = 0.6002): 911.75 ± 0.67 kg/m3; mass density (298.15 K, x1 = 0.7): 950.12 ± 0.69 kg/m3; mass density (298.15 K, x1 = 0.8002): 988.4 ± 0.74 kg/m3; mass density (298.15 K, x1 = 0.9001): 1026.11 ± 0.95 kg/m3; mass density (298.15 K, x1 = 1): 1063.61 ± 1.2 kg/m3; speed of sound (298.16 K, x1 = 0.6998): 1256.2 ± 1.6 m/s; speed of sound (298.16 K, x1 = 0.8957): 1297.1 ± 2 m/s; speed of sound (298.17 K, x1 = 0.3004): 1176.1 ± 1 m/s; speed of sound (298.17 K, x1 = 0.4999): 1214.5 ± 1.3 m/s; speed of sound (298.18 K, x1 = 1): 1319.7 ± 2.1 m/s; speed of sound (298.2 K, x1 = 0.4): 1195 ± 1.2 m/s; speed of sound (298.2 K, x1 = 0.8001): 1277.5 ± 1.8 m/s; speed of sound (298.21 K, x1 = 0.1014): 1145.5 ± 0.82 m/s; speed of sound (298.21 K, x1 = 0.1999): 1159.4 ± 0.92 m/s; speed of sound (298.21 K, x1 = 0.6004): 1235.2 ± 1.5 m/s; speed of sound (303.14 K, x1 = 0.4999): 1195.5 ± 1.3 m/s; speed of sound (303.14 K, x1 = 0.6998): 1237.9 ± 1.6 m/s; speed of sound (303.14 K, x1 = 0.8957): 1279.5 ± 2 m/s; speed of sound (303.15 K, x1 = 0.3004): 1156.1 ± 1 m/s; speed of sound (303.15 K, x1 = 1): 1302.4 ± 2.1 m/s; mass density (303.15 K, x1 = 0.0998): 713.61 ± 0.88 kg/m3; mass density (303.15 K, x1 = 0.1999): 752.3 ± 0.81 kg/m3; mass density (303.15 K, x1 = 0.2998): 791 ± 0.75 kg/m3; mass density (303.15 K, x1 = 0.4001): 830 ± 0.71 kg/m3; mass density (303.15 K, x1 = 0.5001): 868.59 ± 0.68 kg/m3; mass density (303.15 K, x1 = 0.6002): 907.23 ± 0.68 kg/m3; mass density (303.15 K, x1 = 0.7): 945.63 ± 0.7 kg/m3; mass density (303.15 K, x1 = 0.8002): 983.71 ± 0.75 kg/m3; mass density (303.15 K, x1 = 0.9001): 1021.49 ± 0.93 kg/m3; mass density (303.15 K, x1 = 1): 1058.87 ± 1.2 kg/m3; speed of sound (303.19 K, x1 = 0.4): 1175.5 ± 1.2 m/s; speed of sound (303.19 K, x1 = 0.8001): 1259.6 ± 1.8 m/s; speed of sound (303.2 K, x1 = 0.1014): 1124.7 ± 0.82 m/s; speed of sound (303.2 K, x1 = 0.1999): 1138.9 ± 0.91 m/s; speed of sound (303.2 K, x1 = 0.6004): 1216.8 ± 1.5 m/s; speed of sound (308.12 K, x1 = 0.6998): 1219.8 ± 1.6 m/s; speed of sound (308.12 K, x1 = 0.8957): 1261.9 ± 2 m/s; speed of sound (308.13 K, x1 = 0.3004): 1136.2 ± 1 m/s; speed of sound (308.13 K, x1 = 0.4999): 1176.5 ± 1.3 m/s; speed of sound (308.14 K, x1 = 1): 1285 ± 2.1 m/s; mass density (308.15 K, x1 = 0.0998): 709.34 ± 0.89 kg/m3; mass density (308.15 K, x1 = 0.1999): 748.07 ± 0.82 kg/m3; mass density (308.15 K, x1 = 0.2998): 786.58 ± 0.76 kg/m3; mass density (308.15 K, x1 = 0.4001): 825.61 ± 0.71 kg/m3; mass density (308.15 K, x1 = 0.5001): 864.37 ± 0.69 kg/m3; mass density (308.15 K, x1 = 0.6002): 902.95 ± 0.68 kg/m3; mass density (308.15 K, x1 = 0.7): 941.1 ± 0.71 kg/m3; mass density (308.15 K, x1 = 0.8002): 979.09 ± 0.76 kg/m3; mass density (308.15 K, x1 = 0.9001): 1016.82 ± 0.92 kg/m3; mass density (308.15 K, x1 = 1): 1054.14 ± 1.2 kg/m3; speed of sound (308.17 K, x1 = 0.4): 1156.1 ± 1.2 m/s; speed of sound (308.18 K, x1 = 0.1014): 1104 ± 0.81 m/s; speed of sound (308.18 K, x1 = 0.6004): 1198.3 ± 1.5 m/s; speed of sound (308.18 K, x1 = 0.8001): 1241.7 ± 1.8 m/s; speed of sound (308.19 K, x1 = 0.1999): 1118.6 ± 0.91 m/s; mass density (313.15 K, x1 = 0.0998): 704.96 ± 0.9 kg/m3; mass density (313.15 K, x1 = 0.1999): 743.68 ± 0.83 kg/m3; mass density (313.15 K, x1 = 0.2998): 782.17 ± 0.77 kg/m3; mass density (313.15 K, x1 = 0.4001): 821.26 ± 0.72 kg/m3; mass density (313.15 K, x1 = 0.5001): 859.93 ± 0.7 kg/m3; mass density (313.15 K, x1 = 0.6002): 898.61 ± 0.69 kg/m3; mass density (313.15 K, x1 = 0.7): 936.7 ± 0.71 kg/m3; mass density (313.15 K, x1 = 0.8002): 974.58 ± 0.76 kg/m3; mass density (313.15 K, x1 = 0.9001): 1012.12 ± 0.9 kg/m3; mass density (313.15 K, x1 = 1): 1049.39 ± 1.2 kg/m3; speed of sound (313.21 K, x1 = 0.3004): 1116.2 ± 1 m/s; speed of sound (313.21 K, x1 = 0.6998): 1201.4 ± 1.6 m/s; speed of sound (313.21 K, x1 = 0.8957): 1244 ± 1.9 m/s; speed of sound (313.22 K, x1 = 0.4999): 1157.3 ± 1.3 m/s; speed of sound (313.23 K, x1 = 1): 1267.4 ± 2.1 m/s; speed of sound (313.25 K, x1 = 0.1014): 1082.9 ± 0.81 m/s; speed of sound (313.26 K, x1 = 0.4): 1136.5 ± 1.2 m/s; speed of sound (313.26 K, x1 = 0.8001): 1223.6 ± 1.8 m/s; speed of sound (313.28 K, x1 = 0.1999): 1098 ± 0.9 m/s; speed of sound (313.28 K, x1 = 0.6004): 1179.5 ± 1.5 m/s
